Reference: ChEMBL document CHEMBL1795340, “A discovery of novel Mycobacterium tuberculosis pantothenate synthetase inhibitors based on the molecular mechanism of actinomycin D inhibition” (Bioorg Med Chem Lett, 2011)
≈ marks a conversion by molar mass, not a printed value.

What was measured:
[1] = tested on: Mycobacterium tuberculosis; assay: Antimycobacterial activity against drug-resistant Mycobacterium tuberculosis clinical isolate; format: functional
[2] = tested on: Mycobacterium tuberculosis; assay: Antimycobacterial activity against rifampin and isoniazid-resistant Mycobacterium tuberculosis; format: functional

COC(=O)c1cc2c(OCc3ccccc3)cc(N)cc2[nH]1
MIC [1]: 54 µM (≈ 16 µg/mL) | MIC [2]: 54 µM (≈ 16 µg/mL)
